# Measurements as given in PubChem BioAssay (NCI).
#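 How tested: cells in 96-well plates exposed to compound for 48 hours at five concentrations. TGI is the concentration that stops growth completely.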
# What was measured:
# Test in all cases: inhibition of tumour cell growth, NCI panel, 48 h
# MDA-MB-435 = test system: MDA-MB-435
# HCC-2998 colon = test system: HCC-2998 colon
# NCI/ADR-RES ovarian = test system: NCI/ADR-RES ovarian
# SF-268 CNS = test system: SF-268 CNS
# COLO 205 colon = test system: COLO 205 colon
# LOX IMVI melanoma = test system: LOX IMVI melanoma
# HCT-116 colon = test system: HCT-116 colon
# BT-549 breast = test system: BT-549 breast
# MOLT-4 leukemia = test system: MOLT-4 leukemia
# PC-3 prostate = test system: PC-3 prostate
# MDA-MB-231 breast = test system: MDA-MB-231 breast
# MCF7 breast = test system: MCF7 breast
# UACC-62 melanoma = test system: UACC-62 melanoma
# IGROV1 ovarian = test system: IGROV1 ovarian
# MDA-N = test system: MDA-N
# A549 NSCLC = test system: A549 NSCLC
# HCT-15 colon = test system: HCT-15 colon
# OVCAR-3 ovarian = test system: OVCAR-3 ovarian
# CCRF-CEM leukemia = test system: CCRF-CEM leukemia
# NCI-H460 lung = test system: NCI-H460 lung
# SN12C renal = test system: SN12C renal
# HOP-62 NSCLC = test system: HOP-62 NSCLC
# UO-31 renal = test system: UO-31 renal
# UACC-257 melanoma = test system: UACC-257 melanoma
# MALME-3M melanoma = test system: MALME-3M melanoma
# HS 578T breast = test system: HS 578T breast
# RXF 393 renal = test system: RXF 393 renal
# RPMI-8226 leukemia = test system: RPMI-8226 leukemia
# HT29 colon = test system: HT29 colon
# SR leukemia = test system: SR leukemia
# EKVX NSCLC = test system: EKVX NSCLC
# NCI-H226 lung = test system: NCI-H226 lung
# NCI-H522 lung = test system: NCI-H522 lung
# SNB-75 CNS = test system: SNB-75 CNS
# HOP-92 NSCLC = test system: HOP-92 NSCLC
# OVCAR-5 ovarian = test system: OVCAR-5 ovarian
# SK-MEL-28 melanoma = test system: SK-MEL-28 melanoma
# CAKI-1 renal = test system: CAKI-1 renal
# 786-0 renal = test system: 786-0 renal
# SK-MEL-2 melanoma = test system: SK-MEL-2 melanoma
# SK-OV-3 ovarian = test system: SK-OV-3 ovarian
# SNB-19 CNS = test system: SNB-19 CNS
# HL-60(TB) leukemia = test system: HL-60(TB) leukemia
# T-47D breast = test system: T-47D breast
# U251 CNS = test system: U251 CNS
# M14 melanoma = test system: M14 melanoma
# OVCAR-4 ovarian = test system: OVCAR-4 ovarian
# NCI-H23 lung = test system: NCI-H23 lung
# A498 renal = test system: A498 renal
# ACHN renal = test system: ACHN renal
# SK-MEL-5 melanoma = test system: SK-MEL-5 melanoma
# SW-620 colon = test system: SW-620 colon
# OVCAR-8 ovarian = test system: OVCAR-8 ovarian
# K-562 leukemia = test system: K-562 leukemia
# KM12 colon = test system: KM12 colon
# TK-10 renal = test system: TK-10 renal
# SF-295 CNS = test system: SF-295 CNS
# DU-145 prostate = test system: DU-145 prostate
# SF-539 CNS = test system: SF-539 CNS
# DMS 114 small cell lung = test system: DMS 114 small cell lung
# LXFL 529 NSCLC = test system: LXFL 529 NSCLC
# KM20L2 colon = test system: KM20L2 colon
# DMS 273 small cell lung = test system: DMS 273 small cell lung
# HOP-18 NSCLC = test system: HOP-18 NSCLC
# DLD-1 colon = test system: DLD-1 colon
# SNB-78 CNS = test system: SNB-78 CNS
# M19-MEL melanoma = test system: M19-MEL melanoma
smiles,measurement,setting,value
COc1ccc2c(c1)/C(=C\c1c(Cl)[nH]c3cc(C)c(OC)cc13)C(=O)N2,TGI,MDA-MB-435,0.596 µM
same,TGI,HCC-2998 colon,6.19 µM
same,TGI,NCI/ADR-RES ovarian,4.04 µM
same,TGI,SF-268 CNS,8.77 µM
same,TGI,COLO 205 colon,5.69 µM
same,TGI,LOX IMVI melanoma,8.45 µM
same,TGI,HCT-116 colon,6.36 µM
same,TGI,BT-549 breast,7.95 µM
same,TGI,MOLT-4 leukemia,13.7 µM
same,TGI,PC-3 prostate,8.27 µM
same,TGI,MDA-MB-231 breast,13.7 µM
same,TGI,MCF7 breast,16.7 µM
same,TGI,UACC-62 melanoma,15.9 µM
same,TGI,IGROV1 ovarian,5.3 µM
same,TGI,MDA-N,2.13 µM
same,TGI,A549 NSCLC,18.2 µM
same,TGI,HCT-15 colon,5.96 µM
same,TGI,OVCAR-3 ovarian,1.71 µM
same,TGI,CCRF-CEM leukemia,> 35.5 µM
same,TGI,NCI-H460 lung,8.7 µM
same,TGI,SN12C renal,10.7 µM
same,TGI,HOP-62 NSCLC,23 µM
same,TGI,UO-31 renal,19.2 µM
same,TGI,UACC-257 melanoma,20.6 µM
same,TGI,MALME-3M melanoma,19.2 µM
same,TGI,HS 578T breast,> 50.7 µM
same,TGI,RXF 393 renal,7.67 µM
same,TGI,RPMI-8226 leukemia,27.6 µM
same,TGI,HT29 colon,7.27 µM
same,TGI,SR leukemia,2.58 µM
same,TGI,EKVX NSCLC,16.5 µM
same,TGI,NCI-H226 lung,> 100 µM
same,TGI,NCI-H522 lung,6.78 µM
same,TGI,SNB-75 CNS,4.9 µM
same,TGI,HOP-92 NSCLC,22.4 µM
same,TGI,OVCAR-5 ovarian,14.1 µM
same,TGI,SK-MEL-28 melanoma,29 µM
same,TGI,CAKI-1 renal,20.4 µM
same,TGI,786-0 renal,13 µM
same,TGI,SK-MEL-2 melanoma,18.5 µM
same,TGI,SK-OV-3 ovarian,3.07 µM
same,TGI,SNB-19 CNS,12.8 µM
same,TGI,HL-60(TB) leukemia,2.46 µM
same,TGI,T-47D breast,40.5 µM
same,TGI,U251 CNS,5.55 µM
same,TGI,M14 melanoma,5.63 µM
same,TGI,OVCAR-4 ovarian,16.2 µM
same,TGI,NCI-H23 lung,2.9 µM
same,TGI,A498 renal,20.2 µM
same,TGI,ACHN renal,17.3 µM
same,TGI,SK-MEL-5 melanoma,8.7 µM
same,TGI,SW-620 colon,> 40.1 µM
same,TGI,OVCAR-8 ovarian,8.22 µM
same,TGI,K-562 leukemia,27.7 µM
same,TGI,KM12 colon,5.06 µM
same,TGI,TK-10 renal,15.9 µM
same,TGI,SF-295 CNS,13.4 µM
same,TGI,DU-145 prostate,5.98 µM
same,TGI,SF-539 CNS,1.24 µM
CCN1C[C@]2(C)CC[C@H](O)C34C1C(C[C@@H]32)[C@@]1(O)CC[C@H]2C[C@@H]4[C@@H]1[C@H]2O,TGI,DMS 114 small cell lung,> 100 µM
same,TGI,LXFL 529 NSCLC,> 100 µM
same,TGI,SF-268 CNS,> 100 µM
same,TGI,COLO 205 colon,> 100 µM
same,TGI,LOX IMVI melanoma,> 100 µM
same,TGI,HCT-116 colon,> 100 µM
same,TGI,KM20L2 colon,> 100 µM
same,TGI,MOLT-4 leukemia,> 100 µM
same,TGI,UACC-62 melanoma,> 100 µM
same,TGI,DMS 273 small cell lung,> 100 µM
same,TGI,IGROV1 ovarian,> 100 µM
same,TGI,HOP-18 NSCLC,> 100 µM
same,TGI,A549 NSCLC,> 100 µM
same,TGI,HCT-15 colon,> 100 µM
same,TGI,OVCAR-3 ovarian,> 100 µM
same,TGI,CCRF-CEM leukemia,> 100 µM
same,TGI,NCI-H460 lung,> 100 µM
same,TGI,SN12C renal,> 100 µM
same,TGI,HOP-62 NSCLC,> 100 µM
same,TGI,UO-31 renal,> 100 µM
same,TGI,UACC-257 melanoma,> 100 µM
same,TGI,MALME-3M melanoma,> 100 µM
same,TGI,DLD-1 colon,> 100 µM
same,TGI,RXF 393 renal,> 100 µM
same,TGI,RPMI-8226 leukemia,> 100 µM
same,TGI,HT29 colon,> 100 µM
same,TGI,SR leukemia,> 100 µM
same,TGI,NCI-H522 lung,> 100 µM
same,TGI,SNB-75 CNS,> 100 µM
same,TGI,HOP-92 NSCLC,> 100 µM
same,TGI,OVCAR-5 ovarian,> 100 µM
same,TGI,SK-MEL-28 melanoma,> 100 µM
same,TGI,CAKI-1 renal,> 100 µM
same,TGI,786-0 renal,> 100 µM
same,TGI,SNB-78 CNS,> 100 µM
same,TGI,M19-MEL melanoma,> 100 µM
same,TGI,SK-MEL-2 melanoma,> 100 µM
same,TGI,SK-OV-3 ovarian,> 100 µM
same,TGI,SNB-19 CNS,> 100 µM
same,TGI,HL-60(TB) leukemia,> 100 µM
same,TGI,U251 CNS,> 100 µM
same,TGI,M14 melanoma,> 100 µM
same,TGI,OVCAR-4 ovarian,> 100 µM
same,TGI,NCI-H23 lung,> 100 µM
same,TGI,ACHN renal,> 100 µM
same,TGI,SK-MEL-5 melanoma,> 100 µM
same,TGI,SW-620 colon,> 100 µM
same,TGI,OVCAR-8 ovarian,> 100 µM
same,TGI,KM12 colon,> 100 µM
same,TGI,TK-10 renal,> 100 µM
same,TGI,SF-295 CNS,> 100 µM
same,TGI,SF-539 CNS,> 100 µM
